Results: US12539292B2, “BRM targeting compounds and associated methods of use” (Arvinas Operations, Inc., priority 2018, dated 2026)

Target: T1, BRM (Homo sapiens, UniProt P51531)
T1 construct: In-Cell Western Screen of BRM Degradation in SW1573 Cells; endogenous in cells; host or cells: SW1573
Assay: In-cell Western screen of BRM degradation in SW1573 cells (Dmax and DC50)
Type: cell-based
Details: for DC50: degradation of BRM, read-out: BRM DC50; for Dmax: SW1573, read-out: BRM Dmax (%)
Outline: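 Near-infrared imaging on a LI-COR Odyssey (800 and 680 nm channels) quantifies BRM remaining in fixed SW1573 cells. Cells are dosed for 18-20 h at 0.1% final DMSO, and degradation is expressed as Dmax and DC50.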

[1] = % degraded, when tested at the top concentration of between 0.3 and 10 μM

T1 sequence (P51531 whole entry): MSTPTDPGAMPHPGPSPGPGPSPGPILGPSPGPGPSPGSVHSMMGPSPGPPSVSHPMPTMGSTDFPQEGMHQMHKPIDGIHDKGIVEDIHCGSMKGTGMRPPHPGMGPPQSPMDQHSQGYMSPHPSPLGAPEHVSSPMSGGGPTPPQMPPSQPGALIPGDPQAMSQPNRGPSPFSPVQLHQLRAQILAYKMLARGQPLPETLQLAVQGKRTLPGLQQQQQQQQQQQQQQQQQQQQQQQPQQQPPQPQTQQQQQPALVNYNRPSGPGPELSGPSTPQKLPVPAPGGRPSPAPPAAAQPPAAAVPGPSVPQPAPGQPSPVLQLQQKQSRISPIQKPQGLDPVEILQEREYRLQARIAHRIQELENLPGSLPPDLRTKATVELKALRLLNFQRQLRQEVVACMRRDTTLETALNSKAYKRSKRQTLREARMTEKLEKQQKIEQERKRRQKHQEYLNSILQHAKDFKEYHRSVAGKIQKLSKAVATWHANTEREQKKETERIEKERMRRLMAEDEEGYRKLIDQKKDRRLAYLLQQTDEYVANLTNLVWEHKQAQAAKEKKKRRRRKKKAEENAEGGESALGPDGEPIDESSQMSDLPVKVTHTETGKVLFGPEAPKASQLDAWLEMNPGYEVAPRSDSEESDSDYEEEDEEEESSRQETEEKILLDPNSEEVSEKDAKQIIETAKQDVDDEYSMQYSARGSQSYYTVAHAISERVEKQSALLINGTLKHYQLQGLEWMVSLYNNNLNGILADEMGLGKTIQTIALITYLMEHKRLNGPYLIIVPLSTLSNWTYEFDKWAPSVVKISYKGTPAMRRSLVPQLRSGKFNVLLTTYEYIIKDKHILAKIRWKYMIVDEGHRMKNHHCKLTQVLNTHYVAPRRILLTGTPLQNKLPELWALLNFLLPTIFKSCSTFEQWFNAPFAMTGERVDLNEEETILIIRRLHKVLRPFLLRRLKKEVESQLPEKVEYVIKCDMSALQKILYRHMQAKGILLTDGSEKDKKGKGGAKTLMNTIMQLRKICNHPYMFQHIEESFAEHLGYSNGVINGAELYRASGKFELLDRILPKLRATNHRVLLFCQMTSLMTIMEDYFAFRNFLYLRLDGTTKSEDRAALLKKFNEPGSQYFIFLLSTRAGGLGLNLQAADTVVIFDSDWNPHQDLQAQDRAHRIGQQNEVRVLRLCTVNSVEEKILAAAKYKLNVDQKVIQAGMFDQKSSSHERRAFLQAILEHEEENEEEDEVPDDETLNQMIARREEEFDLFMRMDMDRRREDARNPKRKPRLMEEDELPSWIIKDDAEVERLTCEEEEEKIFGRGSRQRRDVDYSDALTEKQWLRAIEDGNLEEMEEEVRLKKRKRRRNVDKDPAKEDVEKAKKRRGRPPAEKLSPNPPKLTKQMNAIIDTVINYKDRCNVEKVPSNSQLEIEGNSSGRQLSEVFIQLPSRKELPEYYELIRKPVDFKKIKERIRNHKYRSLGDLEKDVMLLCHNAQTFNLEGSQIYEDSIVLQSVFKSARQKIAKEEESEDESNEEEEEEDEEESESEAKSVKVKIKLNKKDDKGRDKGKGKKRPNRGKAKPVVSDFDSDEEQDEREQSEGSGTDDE

Compound	DC50 [nM]	Dmax [1] [%]	BRM Dmax (%) [1]
Cc1cc([C@@H](C(=O)N2C[C@H](O)C[C@H]2C(=O)N[C@@H](C)c2ccc(-c3scnc3C)cc2)[C@H](C)COCCCCN2C3CCC2CN(c2cc(-c4ccccc4O)nnc2N)C3)on1 [compound 424, (2S,4R)-1-((2S,3S)-4-(4-(3-(3-amino-6-(2-hydroxyphenyl)pyridazin-4-yl)-3,8-diazabicyclo[3.2.1]octan-8-yl)butoxy)-3-methyl-2-(3-methylisoxazol-5-yl)butanoyl)-4-hydroxy-N-((S)-1-(4-(4-methylthiazol-5-yl)phenyl)ethyl)pyrrolidine-2-carboxamide]	> 30		
Cc1cc([C@H](C(=O)N2C[C@H](O)C[C@H]2C(=O)N[C@@H](C)c2ccc(-c3scnc3C)cc2)[C@H](C)COCCCCN2C3CCC2CN(c2cc(-c4ccccc4O)nnc2N)C3)on1 [compound 425, (2S,4R)-1-((2R,3S)-4-(4-(3-(3-amino-6-(2-hydroxyphenyl)pyridazin-4-yl)-3,8-diazabicyclo[3.2.1]octan-8-yl)butoxy)-3-methyl-2-(3-methylisoxazol-5-yl)butanoyl)-4-hydroxy-N-((S)-1-(4-(4-methylthiazol-5-yl)phenyl)ethyl)pyrrolidine-2-carboxamide]	> 30		
Cc1ncsc1-c1ccc([C@H](C)NC(=O)[C@@H]2C[C@@H](O)CN2C(=O)[C@H](c2cc(N3CCN(CC4CCN(C[C@H]5C[C@H](Oc6cc(N7C8CCC7CN(c7cc(-c9ccccc9O)nnc7N)C8)ccn6)C5)CC4)CC3)no2)C(C)C)cn1 [compound 426, (2S,4R)-1-((2S)-2-(3-(4-((1-(((11,3r)-3-((4-(3-(3-amino-6-(2-hydroxyphenyl)pyridazin-4-yl)-3,8-diazabicyclo[3.2.1]octan-8-yl)pyridin-2-yl)oxy)cyclobutyl)methyl)piperidin-4-yl)methyl)piperazin-1-yl)isoxazol-5-yl)-3-methylbutanoyl)-4-hydroxy-N-((S)-1-(6-(4-methylthiazol-5-yl)pyridin-3-yl)ethyl)pyrrolidine-2-carboxamide]	> 30		
Cc1ncsc1-c1ccc([C@H](C)NC(=O)[C@@H]2C[C@@H](O)CN2C(=O)[C@@H](c2cc(N3CCN(CC4CCN(C[C@H]5C[C@H](Oc6cc(N7C8CCC7CN(c7cc(-c9ccccc9O)nnc7N)C8)ccn6)C5)CC4)CC3)no2)C(C)C)cn1 [compound 427, (2S,4R)-1-((2R)-2-(3-(4-((1-(((1r,3r)-3-((4-(3-(3-amino-6-(2-hydroxyphenyl)pyridazin-4-yl)-3,8-diazabicyclo[3.2.1]octan-8-yl)pyridin-2-yl)oxy)cyclobutyl)methyl)piperidin-4-yl)methyl)piperazin-1-yl)isoxazol-5-yl)-3-methylbutanoyl)-4-hydroxy-N-((S)-1-(6-(4-methylthiazol-5-yl)pyridin-3-yl)ethyl)pyrrolidine-2-carboxamide]	< 2.5	> 75	
Cc1ncsc1-c1ccc([C@H](C)NC(=O)[C@@H]2C[C@@H](O)CN2C(=O)[C@@H](c2cc(OCCN3CCC(O[C@H]4C[C@H](Oc5cc(/C=C/c6cc(-c7ccccc7O)nnc6N)ccn5)C4)CC3)no2)C(C)C)cc1 [compound 428, (2S,4R)-1-((R)-2-(3-(2-(4-((1r,3R)-3-((4-((E)-2-(3-amino-6-(2-hydroxyphenyl)pyridazin-4-yl)vinyl)pyridin-2-yl)oxy)cyclobutoxy)piperidin-1-yl)ethoxy)isoxazol-5-yl)-3-methylbutanoyl)-4-hydroxy-N-((S)-1-(4-(4-methylthiazol-5-yl)phenyl)ethyl)pyrrolidine-2-carboxamide]	< 2.5	> 75	
Cc1ncsc1-c1ncc([C@H](C)NC(=O)[C@@H]2C[C@@H](O)CN2C(=O)[C@H](c2cc(OCCN3CCC(O[C@H]4C[C@H](Oc5cc(N6C7CCC6CN(c6cc(-c8ccccc8O)nnc6N)C7)ccn5)C4)CC3)no2)C(C)C)cn1 [compound 429, (2S,4R)-1-((2S)-2-(3-(2-(4-((1r,3S)-3-((4-(3-(3-amino-6-(2-hydroxyphenyl)pyridazin-4-yl)-3,8-diazabicyclo[3.2.1]octan-8-yl)pyridin-2-yl)oxy)cyclobutoxy)piperidin-1-yl)ethoxy)isoxazol-5-yl)-3-methylbutanoyl)-4-hydroxy-N-((S)-1-(2-(4-methylthiazol-5-yl)pyrimidin-5-yl)ethyl)pyrrolidine-2-carboxamide]	> 30		
Cc1ncsc1-c1ncc([C@H](C)NC(=O)[C@@H]2C[C@@H](O)CN2C(=O)[C@@H](c2cc(OCCN3CCC(O[C@H]4C[C@H](Oc5cc(N6C7CCC6CN(c6cc(-c8ccccc8O)nnc6N)C7)ccn5)C4)CC3)no2)C(C)C)cn1 [compound 430, (2S,4R)-1-((2R)-2-(3-(2-(4-((1r,3R)-3-((4-(3-(3-amino-6-(2-hydroxyphenyl)pyridazin-4-yl)-3,8-diazabicyclo[3.2.1]octan-8-yl)pyridin-2-yl)oxy)cyclobutoxy)piperidin-1-yl)ethoxy)isoxazol-5-yl)-3-methylbutanoyl)-4-hydroxy-N-((S)-1-(2-(4-methylthiazol-5-yl)pyrimidin-5-yl)ethyl)pyrrolidine-2-carboxamide]	2.5 to 10	> 75	
Cc1cc([C@@H](C(=O)N2C[C@H](O)C[C@H]2C(=O)N[C@@H](C)c2ccc(-c3scnc3C)cc2)[C@@H](C)COCCCCOc2cc(N3C4CCC3CN(c3cc(-c5ccccc5O)nnc3N)C4)ccn2)on1 [compound 431, (2S,4R)-1-((2S,3R)-4-(4-((4-(3-(3-amino-6-(2-hydroxyphenyl)pyridazin-4-yl)-3,8-diazabicyclo[3.2.1]octan-8-yl)pyridin-2-yl)oxy)butoxy)-3-methyl-2-(3-methylisoxazol-5-yl)butanoyl)-4-hydroxy-N-((S)-1-(4-(4-methylthiazol-5-yl)phenyl)ethyl)pyrrolidine-2-carboxamide]	< 2.5	> 75	
Cc1cc([C@H](C(=O)N2C[C@H](O)C[C@H]2C(=O)N[C@@H](C)c2ccc(-c3scnc3C)cc2)[C@@H](C)COCCCCOc2cc(N3C4CCC3CN(c3cc(-c5ccccc5O)nnc3N)C4)ccn2)on1 [compound 432, (2S,4R)-1-((2R,3R)-4-(4-((4-(3-(3-amino-6-(2-hydroxyphenyl)pyridazin-4-yl)-3,8-diazabicyclo[3.2.1]octan-8-yl)pyridin-2-yl)oxy)butoxy)-3-methyl-2-(3-methylisoxazol-5-yl)butanoyl)-4-hydroxy-N-((S)-1-(4-(4-methylthiazol-5-yl)phenyl)ethyl)pyrrolidine-2-carboxamide]	10 to 30	> 75	
Cc1ncsc1-c1ccc([C@H](C)NC(=O)[C@@H]2C[C@@H](O)CN2C(=O)[C@H](c2cc(N3CCC(CO[C@H]4C[C@H](Oc5cc(N6C7CCC6CN(c6cc(-c8ccccc8O)nnc6N)C7)ccn5)C4)CC3)no2)C(C)C)cc1 [compound 433, (2S,4R)-1-((2S)-2-(3-(4-(((1r,3S)-3-((4-(3-(3-amino-6-(2-hydroxyphenyl)pyridazin-4-yl)-3,8-diazabicyclo[3.2.1]octan-8-yl)pyridin-2-yl)oxy)cyclobutoxy)methyl)piperidin-1-yl)isoxazol-5-yl)-3-methylbutanoyl)-4-hydroxy-N-((S)-1-(4-(4-methylthiazol-5-yl)phenyl)ethyl)pyrrolidine-2-carboxamide]	2.5 to 10	> 75	
Cc1ncsc1-c1ccc([C@H](C)NC(=O)[C@@H]2C[C@@H](O)CN2C(=O)[C@@H](c2cc(N3CCC(CO[C@H]4C[C@H](Oc5cc(N6C7CCC6CN(c6cc(-c8ccccc8O)nnc6N)C7)ccn5)C4)CC3)no2)C(C)C)cc1 [compound 434, (2S,4R)-1-((2R)-2-(3-(4-(((1r,3R)-3-((4-(3-(3-amino-6-(2-hydroxyphenyl)pyridazin-4-yl)-3,8-diazabicyclo[3.2.1]octan-8-yl)pyridin-2-yl)oxy)cyclobutoxy)methyl)piperidin-1-yl)isoxazol-5-yl)-3-methylbutanoyl)-4-hydroxy-N-((S)-1-(4-(4-methylthiazol-5-yl)phenyl)ethyl)pyrrolidine-2-carboxamide]	< 2.5	> 75	
Cc1ncsc1-c1ccc([C@H](C)NC(=O)[C@@H]2C[C@@H](O)CN2C(=O)[C@H](c2cc(OCCC3(O)CCN(C[C@H]4C[C@H](Oc5cc(N6C7CC[C@@H]6CN(c6cc(-c8ccccc8O)nnc6N)C7)ccn5)C4)CC3)no2)C(C)C)cc1 [compound 435, (2S,4R)-1-((2S)-2-(3-(2-(1-(((1r,3S)-3-((4-(3-(3-amino-6-(2-hydroxyphenyl)pyridazin-4-yl)-3,8-diazabicyclo[3.2.1]octan-8-yl)pyridin-2-yl)oxy)cyclobutyl)methyl)-4-hydroxypiperidin-4-yl)ethoxy)isoxazol-5-yl)-3-methylbutanoyl)-4-hydroxy-N-((S)-1-(4-(4-methylthiazol-5-yl)phenyl)ethyl)pyrrolidine-2-carboxamide]	< 2.5		A (A > 75)
Cc1ncsc1-c1ccc([C@H](C)NC(=O)[C@@H]2C[C@@H](O)CN2C(=O)[C@@H](c2cc(OCCC3(O)CCN(C[C@H]4C[C@H](Oc5cc(N6C7CCC6CN(c6cc(-c8ccccc8O)nnc6N)C7)ccn5)C4)CC3)no2)C(C)C)cc1 [compound 436, (2S,4R)-1-((2R)-2-(3-(2-(1-(((1r,3R)-3-((4-(3-(3-amino-6-(2-hydroxyphenyl)pyridazin-4-yl)-3,8-diazabicyclo[3.2.1]octan-8-yl)pyridin-2-yl)oxy)cyclobutyl)methyl)-4-hydroxypiperidin-4-yl)ethoxy)isoxazol-5-yl)-3-methylbutanoyl)-4-hydroxy-N-((S)-1-(4-(4-methylthiazol-5-yl)phenyl)ethyl)pyrrolidine-2-carboxamide]	< 2.5	> 75	
